Assay results: article PMC12507022, “Widespread distribution of BpfA-mediated bisphenol F degradation among members of the Pseudomonadota and Actinomycetota” (The ISME Journal, 2025)

Legend:
FBO = tested on: T1, FBO; assay: HPLC, Michaelis-Menten fit; assay type: biochemical, Sphingobium sp. W15; details: 20 mM Tris-HCl pH 8.0, 30 °C, 0.2 mM FAD added
T1 construct: synthetic gene, expressed and purified like BpfA (E. coli, Ni-NTA)

BpfA = tested on: T2, BpfA; assay: HPLC, Michaelis-Menten fit; assay type: biochemical, Microbacterium sp. F2; details: 20 mM Tris-HCl pH 8.0, 30 °C, O2 as electron acceptor
T2 construct: recombinant from pET29a(+) (NdeI/XhoI) in E. coli BL21(DE3), Ni-NTA purified; contains flavin

Km (FBO) [µM]	Km (BpfA) [µM]	SMILES
170 ± 5.9	25.4 ± 2.9	CCCc1ccc(O)c(OC)c1 [4PG]
–	297 ± 5	COCc1ccc(O)cc1 [4MOP]
183 ± 9.3	266 ± 10.3	COc1cc(CO)ccc1O [VA]

SMILES	Km (FBO) [µM]	Km (BpfA) [µM]
Oc1ccc(Cc2ccc(O)cc2)cc1 [BPF]	167 ± 12.8	12.4 ± 1.9
